Columns and labels:
Format in all cases: cell-based, human
QSOX1-a mRNA = QSOX1-a mRNA abundance by RT-qPCR in MDA-MB-231 cells; set-up: dose or concentration left out as unconfirmed; conditions: at the, the highest dose
Experimental: (§1) Analysis of mRNA Abundance by RT-qPCR. Unless stated otherwise, all RT-qPCR experiments were performed to measure nascent RNA levels by using Click-it Nascent RNA Capture Kit (Cat #C10365, Thermo Fisher) per the manufacturer's protocols. Briefly, cells were treated with 0.2 mM of ethynyl uridine (EU) in growth medium for 16 h, after which the medium was replaced with fresh growth medium lacking EU. Compound or ASO treatment was performed at the same time of initial EU treatment, and compounds were replenished after replacing the medium to remove EU. Total RNA was extracted by using a Zymo Quick-RNA Miniprep Kit as per manufacturer's protocol with DNase treatment. The click reaction and pull-down of nascent RNA were performed as described in “In Vitro Chemical-Crosslinking and Isolation by Pull-down (Chem-CLIP) with Fluorescently Labeled RNA”. Reverse transcription (RT) was performed by using 300 ng total RNA and a QScript cDNA synthesis kit (QuantaBio) per manufacturer's protocols qPCR was performed in 384-well plates by using Power SYBR Green Master Mix (Life Technologies) on a QuantStudioS™ Cycler (Applied Biosystems) using the “Comparative Ct with Melt” method.

QSOX1-a protein = QSOX1-a protein abundance by Western blotting in MDA-MB-231 cells; conditions: 10 μM
Experimental: Measuring Protein Abundance by Western Blotting. MDA-MB-231 cells were seeded in 6-well plates at ˜50% confluency and treated with vehicle (DMSO) or compound as described above but without EU treatment. After 16 h, the compound-containing growth medium was removed and replaced with fresh medium containing compound (re-dosing). After an additional 32 h incubation, total protein was harvested (48 h total treatment time). The cells were then washed twice with cold 1×DPBS, and total protein was harvested by using Mammalian Protein Extraction Reagent (M-PER, Thermo Scientific) per the manufacturer's protocol. Protein concentration was quantified by using BCA Protein Assay Kit (Pierce), and the proteins were separated by using 10% SDS-polyacrylamide gel (20 μg protein per lane). After gel electrophoresis in 1× Running Buffer (50 mM MOPS, 50 mM Tris-base, pH 7.5, 1 mM EDTA, and 0.1% (w/v) SDS) at 120 V for 1 h, the proteins were transferred to a PVDF membrane (0.45 μm, Cytiva) at 300 mA for 1 h in 1× Transfer Buffer (25 mM Bicine, 25 mM Tris-base, pH 7.5, 1:4 MeOH:H2O). The membrane was blocked with 5% (w/v) non-fat dry milk in TBST (1×TBS containing 0.1% (v/v) Tween-20) for 1 h at room temperature. The primary antibody for QSOX1 protein (Cat #10092-932, Proteintech) or SQSTM1 protein (Cat #ab 109012, Abcam) was incubated with 1:1000 dilutions at 4° C. for 16 h. The membrane was then washed by TBST four times (5 min each) and then incubated with the secondary antibody (Cat #7074S, Cell Signaling) with 1:5000 dilution at room temperature for 2 h. The membrane was washed with TBST four times (5 min each) and imaged by using a SuperSignal West Pico Chemiluminescent Substrate (Pierce) per manufacturer's protocol. The blot was stripped by washing the membrane in 1× Stripping Buffer (200 mM glycine, pH 2.2, 4 mM SDS, 1% (v/v) Tween 20) at room temperature for 30 min, followed by blocking again as described above. […] Expression levels of proteins were quantified based on band intensity by using ImageJ. […]

QSOX1 mRNA = test: Chem-CLIP pull-down of QSOX1 mRNA in live cells, RT-qPCR (dose and time dependence)
Experimental: Chemical-Cross-linking and Isolation by Pull-down (Chem-CLIP) in Live Cells. MDA-MB-231 cells were seeded in 60 mm dishes and allowed to reach ˜80% confluency. The cells were then treated with 20 μM of compound in growth medium and incubated for 16 h. Cells were washed with 1×DPBS and irradiated with UV light for 10 min. Total RNA was harvested using a Zymo Quick-RNA Miniprep Kit per the manufacturer's protocol with DNase treatment. Total RNA was chemically fragmented by using an NEBNext Magnesium RNA Fragmentation Module (E6150S) per manufacturer's protocol to achieve final lengths between 100-150 nucleotides Pull-down of cross-linked RNAs was performed by adding 10 μg of total RNA to 100 μL of azide-disulfide agarose beads (Click Chemistry Tools, 1238-2) pre-washed with 25 mM HEPES, pH 7.0. The click reaction and pull-down were completed as described in “In Vitro Chemical-Crosslinking and Isolation by Pull-down (Chem-CLIP) with Fluorescently Labeled RNA”. The pulled down RNA was purified by RNA CleanXP beads (Beckman, A66514) per manufacturer's protocol.
For dose response studies, cells were treated with varying concentration of F1 (1, 5, 20 μM) as described above for 16 h. For time course studies, cells were treated with 20 μM of for 1, 4, 8, or 16 h. With the exception of compound concentration or time at which total RNA was harvested, the remaining steps of the protocol were completed as described above for both concentration- and time-dependent studies.
as §1

Compound	decrease of QSOX1-a mRNA levels (QSOX1-a mRNA) [%]	reduction of QSOX1-a protein abundance (QSOX1-a protein) [%]	enrichment of QSOX1 mRNA (QSOX1 mRNA; 5 μM, 16 h incubation) [fold]	enrichment of QSOX1 mRNA (QSOX1 mRNA; 20 μM, 1 h incubation)	enrichment of QSOX1 mRNA (QSOX1 mRNA; 20 μM, 4 h) [fold]	enrichment of QSOX1 mRNA (QSOX1 mRNA; 20 μM, 8 h and 16 h time points)	enrichment of QSOX1 mRNA (QSOX1 mRNA; 20 μM, 16 h incubation) [fold]
CCOC(=O)C1=C(Nc2ccccc2)S/C(=C\c2ccc(OCCOCCOCCOCCNC(=O)CCC(=O)N(C)[C@H]3CC[C@@H](c4ccc(Cl)c(Cl)c4)c4ccccc43)c(O)c2)C1=O [Compound F1-RIBOTAC]	~35	~35					
C#CCCC1(CCC(=O)N(C)[C@H]2CC[C@@H](c3ccc(Cl)c(Cl)c3)c3ccccc32)N=N1 [Compound F1]			~6	no enrichment	~4	plateauing	~12

From US20250346943A1, “DEGRADER COMPOUNDS OF QSOX1 mRNA” (UNIVERSITY OF FLORIDA RESEARCH FOUNDATION, INCORPORATED, priority 2022, published 2025)
